# Experimental data as given in ChEMBL document CHEMBL3639354, “(EN) 3-sulfonyl-pyrazolo[1,5-a] pyrimidines / antagonists of serotonin 5-HT6 receptors, methods for the production and the use thereof” (2013).
# Biological target: 5-hydroxytryptamine receptor 6 (Homo sapiens, UniProt P50406)
# Assay: Functional Assay: Functional assay using 5-HT6 receptors.
# Chain of 5-hydroxytryptamine receptor 6 (P50406 whole entry): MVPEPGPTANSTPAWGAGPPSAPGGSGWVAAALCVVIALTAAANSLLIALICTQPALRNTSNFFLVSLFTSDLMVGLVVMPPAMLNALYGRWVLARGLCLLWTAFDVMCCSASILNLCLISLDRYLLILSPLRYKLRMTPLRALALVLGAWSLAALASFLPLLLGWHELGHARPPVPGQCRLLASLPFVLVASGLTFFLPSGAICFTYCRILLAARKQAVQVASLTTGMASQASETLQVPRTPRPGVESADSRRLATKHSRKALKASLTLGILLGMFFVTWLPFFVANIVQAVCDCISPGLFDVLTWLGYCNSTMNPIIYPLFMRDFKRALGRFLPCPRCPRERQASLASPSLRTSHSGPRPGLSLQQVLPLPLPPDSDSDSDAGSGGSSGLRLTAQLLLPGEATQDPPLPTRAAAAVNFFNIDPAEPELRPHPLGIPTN
compound,measurement,value
CSc1nn2c(C)cc(C)nc2c1S(=O)(=O)c1ccc(F)c(Cl)c1,IC50,46 nM
